# Experiments:
# [1] = system: human skin fibroblast cells; conditions: known from the literature (positive control); cited from earlier work
# [2] = system: normal human skin fibroblast cells; test: Proliferation test of normal human skin fibroblast cells; assay type: cell-based; conditions: similar experiment with the hydrolysate
# Description: Skin fibroblast cells cultured in a culture flask was seeded in a 96-well plate at 3,500 cells/cm^2 ([…], medium: 10% FBS DMEM). After incubating for 24 hours at 37° C. under 5% CO2 condition, the liquid medium in the wells was removed, replaced with DMEM containing 0.5% FBS and incubated for 24 hours under similar conditions. The liquid medium in the wells was removed and the wells were washed with DPBS, after which DPBS was removed. Solutions of predetermined concentrations of peptide Val-Pro-Gly-Gly (VPGG) and peptide Val-Pro-Gly-Ala (VPGA) were prepared using DMEM containing 0.5% FBS were prepared and 100 μL of the solution was added to each well. Fibroblast cells were incubated for 4 days at 37° C. under 5% CO2 condition and supernatant was recovered. The supernatant recovered was used for a measurement of amount of elastin production in Example 2. DMEM containing 0.5% FBS was added and cells were counted using cell counting kit-8 (10 μL/well) and a cell proliferation rate relative to the cell number obtained from the sample without adding the peptides.
# [3] = system: human skin fibroblast cells; test: Migration activity test of normal human skin fibroblast cells; assay type: cell-based; conditions: 20 hours, membrane inserts pore size 8 μm, absorbance at 560 nm
# Description: Effect of peptide Val-Pro-Gly-Gly on a migration activity of fibroblast cells that relates to processes of recovery and regeneration of tissue and wound healing was investigated. To bottom of each well of 24-well plate of CytoSelect (registered trade mark) 24-well Cell Migration Assay Kit (Cell Biotics), DMEM medium (control), 500 μL of peptide Val-Pro-Gly-Gly or peptide Val-Pro-Gly (positive control: see “Elastin—Structure, Function and Pathology”, edited and written by Hiroyuki Ito, Elastin Study Group of Japan (not for sale), p. 124-137, 2008) dissolved in DMEM medium were added. Then, 300 μL of cell suspension of human skin fibroblast cells (P4 to 5) prepared by dispersing the cell in DMEM media (1×10^6 cells/mL) was added inside membrane inserts (pore size: 8 μm). The inserts were inserted in wells and incubated in a cell incubator at 37° C. for 20 hours (in preliminary examination, duration of incubation was also set to 6 hours). […] Cells were stained by adding 400 μL of cell stain liquid and staining for 10 minutes at room temperature. Then the inserts were washed with distilled water, dried and stain was confirmed by optical microscopic observation. […] of reaction mixture was placed in 96-well plate and absorbance at 560 nm was measured using a plate reader.
# [4] = system: normal human knee joint chondrocytes (NHAc-kn); test: Elastin production test in normal human knee joint chondrocytes (dot blot); assay type: cell-based
# Description: Normal human knee joint chondrocytes (NHAc-kn: 1.0×10^5 cells/mL) were seeded in a 24-well plate (900 μL/well, medium: CBM+0.5% FBS) and incubated under humidification condition at 37° C. in 5% CO2 atmosphere for 48 hours. The medium was exchanged and peptide VPGG and peptide VP was added (100 μL/well, final concentration: 0 to 5000 nM) and incubated under humidification condition at 37° C. in 5% CO2 atmosphere for 48 hours. From the cell culture thus obtained, supernatant was collected and dot-blotted onto a PVDF membrane. After blocking with PBST containing 5% skim milk, the membrane was washed with PBST. The membrane was reacted with rabbit anti-elastin antibody as a primary antibody, washed with PBST and reacted with HRP conjugate goat […] as a secondary antibody and washed with PBST. The membrane was reacted with a detection reagent ImmunoStar (FUJIFILM Wako Pure Chemical Corporation) and the amount of elastin production was estimated based on intensities of signals obtained.
substance,measurement,setting,value
Val-Pro-Gly,effect for promoting cell migration,[1],known to have the effect for promoting cell migration
Val-Pro-Gly-Gly (VPGG; printed: Val-Pro-Gly-Gly),cell proliferation rate compared with hydrolysate of elastin from bonitos bulbus arteriosus,[2],higher cell proliferation rate
same,effect for promoting cell migration compared with peptide Val-Pro-Gly (positive control),[3],significantly higher effect for promoting cell migration
Val-Pro-Gly-Ala (VPGA; printed: Val-Pro-Gly-Ala),cell proliferation rate compared with hydrolysate of elastin from bonitos bulbus arteriosus,[2],higher cell proliferation rate
Val-Pro,effect on the elastin production in the chondrocytes,[4],promoting effect

# From patent publication US20190111103A1, “NOVEL PEPTIDE OR SALT THEREOF, COMPOSITION FOR ENHANCING PROLIFERATION OF FIBROBLAST CELLS AND COMPOSITION FOR ENHANCING ELASTIN PRODUCTION IN FIBROBLAST CELLS AND CHONDROCYTES CONTAINING THE SAME” (Hayashikane Sangyo Co., Ltd., priority 2017, published 2019)
